Assay results from ChEMBL document CHEMBL3822385, “Antileishmanial activity of new thiophene-indole hybrids: Design, synthesis, biological and cytotoxic evaluation, and chemometric studies” (Bioorg Med Chem, 2016).
≈ marks a conversion by molar mass, not a printed value. Calls of active or inactive are those of the source. No cut-off for these calls is given here.

Experiments:
[1] = Hemolytic activity in human O+ erythrocytes after 1 hr by spectrophotometry; type: ADME, cell-based, Erythrocyte; conditions: for HC50 at 1 h: human O+ erythrocytes
[2] = Selectivity index, ratio of HC50 for human O+ erythrocytes to IC50 for Leishmania amazonensis IFLA/BR/67/PH8 promastigotes
Leishmania amazonensis [3] = assay: Antileishmanial activity against Leishmania amazonensis IFLA/BR/67/PH8 promastigotes assessed as parasite growth inhibition incubated for 72 hrs using neubauer chamber by microscopic analysis; type: functional, organism-based; conditions: IFLA/BR/67/PH8, 72 h
Leishmania amazonensis [4] = assay: Induction of genomic DNA fragmentation in Leishmania amazonensis IFLA/BR/67/PH8 promastigotes at 1 to 4 times antileishmanial IC50 after overnight incubation by GelRed staining based agarose gel electrophoresis; type: functional, organism-based
Leishmania amazonensis [5] = assay: Antileishmanial activity against trivalent antimony-resistant Leishmania amazonensis IFLA/BR/67/PH8 promastigotes assessed as parasite growth inhibition incubated for 72 hrs using neubauer chamber by microscopic analysis; type: functional, organism-based; conditions: IFLA/BR/67/PH8, 72 h

Row | Molecule | HC50 at 1 h [1] | Selectivity Index [2] | IC50 (Leishmania amazonensis [3]) | Activity (Leishmania amazonensis [4]) | IC50 (Leishmania amazonensis [5]) | HC50 ([1]; erythrocyte, 1 h)
1 | Cc1ccc2[nH]cc(/C=N/c3sc4c(c3C#N)CCCCCC4)c2c1 | > 400 µg/mL | >61.3 | 6.5 µg/mL (≈ 18.7 µM) |  |  | 
2 | N#Cc1c(/N=C/c2c[nH]c3c2ccc2ccccc23)sc2c1CCCC2 | > 400 µg/mL | >13.5 | 29.7 µg/mL (≈ 83.6 µM) |  |  | 
3 | Cc1ccc2[nH]cc(/C=N/c3sc4c(c3C#N)CCC4)c2c1 | > 400 µg/mL | >56.6 | 7.1 µg/mL (≈ 23.2 µM) |  |  | 
4 | COc1ccc2[nH]cc(/C=N/c3sc4c(c3C#N)CCCCC4)c2c1 | > 400 µg/mL | >39.1 | 10.2 µg/mL (≈ 29.2 µM) |  |  | 
5 | N#Cc1c(/N=C/c2c[nH]c3ccccc23)sc2c1CCCCCC2 | > 400 µg/mL | >73.2 | 5.4 µg/mL (≈ 16.2 µM) |  |  | 
6 | Cc1cccc2c(/C=N/c3sc4c(c3C#N)CCC4)c[nH]c12 |  |  | 91.6 µg/mL (≈ 300 µM) |  |  | 
7 | N#Cc1c(/N=C/c2c[nH]c3cccc([N+](=O)[O-])c23)sc2c1CCC2 |  |  | 171 µg/mL (≈ 509 µM) |  |  | 
8 | COc1ccc2[nH]cc(/C=N/c3sc4c(c3C#N)CCCCCC4)c2c1 | > 400 µg/mL | >62.7 | 6.4 µg/mL (≈ 17.6 µM) |  |  | 
9 | N#Cc1c(/N=C/c2c[nH]c3ncccc23)sc2c1CCC2 | > 400 µg/mL | >1.4 | 289 µg/mL (≈ 988 µM) |  |  | 
10 | MEGLUMINE ANTIMONATE [listing 1 of 2 here] |  | 0.02 |  |  |  | 
11 | N#Cc1c(/N=C/c2c[nH]c3ccccc23)sc2c1CCCCC2 | > 400 µg/mL | >124.6 | 3.2 µg/mL (≈ 10 µM) |  |  | 
12 | N#Cc1c(/N=C/c2c[nH]c3ncccc23)sc2c1CCCCC2 | > 400 µg/mL | >45.8 | 8.7 µg/mL (≈ 27.2 µM) |  |  | 
13 | Cc1cccc2c(/C=N/c3sc4c(c3C#N)CCCCC4)c[nH]c12 | > 400 µg/mL | >0.5 | 786 µg/mL (≈ 2360 µM) |  |  | 
14 | N#Cc1c(/N=C/c2c[nH]c3ncccc23)sc2c1CCCC2 | > 400 µg/mL | >1.7 | 228 µg/mL (≈ 744 µM) |  |  | 
15 | Cc1ccc2[nH]cc(/C=N/c3sc4c(c3C#N)CCCCC4)c2c1 | > 400 µg/mL | >65.6 | 6.1 µg/mL (≈ 18.3 µM) |  |  | 
16 | N#Cc1c(/N=C/c2c[nH]c3ncccc23)sc2c1CCCCCC2 | > 400 µg/mL | >0.6 | 651 µg/mL (≈ 1950 µM) |  |  | 
17 | N#Cc1c(/N=C/c2c[nH]c3ccccc23)sc2c1CCC2 | > 400 µg/mL | >8.2 | 48.9 µg/mL (≈ 168 µM) |  |  | 
18 | N#Cc1c(/N=C/c2c[nH]c3ccccc23)sc2c1CCCC2 | > 400 µg/mL | >88.8 | 4.5 µg/mL (≈ 14.7 µM) |  |  | 

Row | Molecule | HC50 at 1 h [1] | Selectivity Index [2] | IC50 (Leishmania amazonensis [3]) | Activity (Leishmania amazonensis [4]) | IC50 (Leishmania amazonensis [5]) | HC50 ([1]; erythrocyte, 1 h)
19 | N#Cc1c(/N=C/c2c[nH]c3c2ccc2ccccc23)sc2c1CCCCC2 | > 400 µg/mL | >21.4 | 18.7 µg/mL (≈ 50.6 µM) |  |  | 
20 | N#Cc1c(/N=C/c2c[nH]c3c2ccc2ccccc23)sc2c1CCC2 | > 400 µg/mL | >50.7 | 7.9 µg/mL (≈ 23.1 µM) |  |  | 
21 | Cc1cccc2c(/C=N/c3sc4c(c3C#N)CCCC4)c[nH]c12 | > 400 µg/mL | >1.2 | 322 µg/mL (≈ 1010 µM) |  |  | 
22 | Potassium antimonyl tartrate trihydrate |  | 38.2 |  |  |  | 
23 | N#Cc1c(/N=C/c2c[nH]c3cccc([N+](=O)[O-])c23)sc2c1CCCC2 | > 400 µg/mL | >1.3 | 299 µg/mL (≈ 853 µM) |  |  | 
24 | COc1ccc2[nH]cc(/C=N/c3sc4c(c3C#N)CCCC4)c2c1 | > 400 µg/mL | >66.8 | 6 µg/mL (≈ 17.9 µM) |  |  | 
25 | Cc1cccc2c(/C=N/c3sc4c(c3C#N)CCCCCC4)c[nH]c12 | > 400 µg/mL | >96.6 | 4.1 µg/mL (≈ 11.8 µM) |  |  | 
26 | N#Cc1ccc2[nH]cc(/C=N/c3sc4c(c3C#N)CCC4)c2c1 | > 400 µg/mL | >53.7 | 7.4 µg/mL (≈ 23.4 µM) |  |  | 
27 | C[C@@H]1[C@H](O)[C@@H](C)/C=C/C=C/C=C/C=C/C=C/C=C/C=C/[C@H](O[C@@H]2O[C@H](C)[C@@H](O)[C@H](N)[C@@H]2O)C[C@@H]2O[C@](O)(C[C@@H](O)C[C@@H](O)[C@H](O)CC[C@@H](O)C[C@@H](O)CC(=O)O[C@H]1C)C[C@H](O)[C@H]2C(=O)O [AMPHOTERICIN B] | 22.4 µg/mL | 124.5 | 0.2 µg/mL (≈ 0.216 µM) |  |  | 
28 | N#Cc1ccc2[nH]cc(/C=N/c3sc4c(c3C#N)CCCC4)c2c1 | > 400 µg/mL | >84.7 | 4.7 µg/mL (≈ 14.2 µM) |  |  | 
29 | N#Cc1c(/N=C/c2c[nH]c3c2ccc2ccccc23)sc2c1CCCCCC2 | > 400 µg/mL | >42.6 | 9.4 µg/mL (≈ 24.5 µM) |  |  | 
30 | N#Cc1ccc2[nH]cc(/C=N/c3sc4c(c3C#N)CCCCC4)c2c1 | > 400 µg/mL | >115.6 | 3.4 µg/mL (≈ 9.87 µM) |  |  | 
31 | N#Cc1ccc2[nH]cc(/C=N/c3sc4c(c3C#N)CCCCCC4)c2c1 | > 400 µg/mL | >193.2 | 2.1 µg/mL (≈ 5.86 µM) | Active | 2.8 µg/mL (≈ 7.81 µM) | 
32 | MEGLUMINE ANTIMONATE [listing 2 of 2 here] |  |  |  |  |  | 681.2 µg/mL
33 | N#Cc1c(/N=C/c2c[nH]c3cccc([N+](=O)[O-])c23)sc2c1CCCCC2 | > 400 µg/mL | >0.3 | 1070 µg/mL (≈ 2930 µM) |  |  | 
34 | Cc1ccc2[nH]cc(/C=N/c3sc4c(c3C#N)CCCC4)c2c1 | > 400 µg/mL | >172.4 | 2.3 µg/mL (≈ 7.2 µM) |  |  | 
35 | N#Cc1c(/N=C/c2c[nH]c3cccc([N+](=O)[O-])c23)sc2c1CCCCCC2 | > 400 µg/mL | >42.5 | 9.4 µg/mL (≈ 24.8 µM) |  |  | 
36 | COc1ccc2[nH]cc(/C=N/c3sc4c(c3C#N)CCC4)c2c1 | > 400 µg/mL | >3.2 | 125 µg/mL (≈ 388 µM) |  |  | 
